Here are results for 22 compounds from US7488716B2 (priority 2001, dated 2009).

Where no end group is shown, it is not given here. PEG 22kD = 22 kDa polyethylene glycol (on cysteine)

In test [1] the target is T1, GLP-1 receptor (Rattus norvegicus, UniProt P32301).
T1 construct: endogenous in cells; host or cells: RINm5F cells
T1 sequence (P32301 22-463): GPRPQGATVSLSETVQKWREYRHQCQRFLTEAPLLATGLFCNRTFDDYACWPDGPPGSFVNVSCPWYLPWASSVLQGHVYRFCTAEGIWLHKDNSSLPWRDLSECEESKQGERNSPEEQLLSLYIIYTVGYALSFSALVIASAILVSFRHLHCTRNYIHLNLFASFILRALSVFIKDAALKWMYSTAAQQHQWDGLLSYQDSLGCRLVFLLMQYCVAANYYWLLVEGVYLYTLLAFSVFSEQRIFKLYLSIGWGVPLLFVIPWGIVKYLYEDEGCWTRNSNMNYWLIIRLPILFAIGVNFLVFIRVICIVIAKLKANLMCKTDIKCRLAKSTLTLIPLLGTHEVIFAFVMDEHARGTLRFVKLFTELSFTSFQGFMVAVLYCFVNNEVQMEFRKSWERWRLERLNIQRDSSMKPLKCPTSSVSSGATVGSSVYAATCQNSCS
As to the kind of experiment: Peptide signaling through GLP-1 receptor, cAMP scintillation proximity assay in RINm5F cells. Format: cell-based. The note with it: for GLP1 Relative Potency: EC50 of native GLP-1 (7-36) divided by EC50 of polypeptide x 100, cAMP in RINm5F cells; for % GLP1 max: maximal cAMP activity relative to native GLP-1 (7-36), RINm5F cells; for Emax: RIN-m5F, read-out: % GLP1 max. The procedure: The media was removed and the cells were washed twice with PBS. […] For assay of peptides conjugated with fatty acid, the BSA was omitted from the incubation buffer. The incubation buffer was removed, and the cells were lysed in the lysis reagent provided with the cAMP Scintillation Proximity Assay (SPA) direct screening assay system (Amersham Pharmacia Biotech Inc, Piscataway, N.J.). The amount of cAMP (in pmol) present in the lysates was determined following instructions provided with this kit.
The amount of cAMP (in pmol) produced at each concentration of peptide was plotted and analyzed by nonlinear regression using Prizm software to determine the EC50 for each peptide.
Background: SPA uses beads or plates that emit light when radiolabelled molecules are held near them.

Test [2] can be described thus: Intraperitoneal glucose tolerance testing (IPGTT) in rats or mice. Format: in vivo. The note with it: ipGTT in mice 3 hours post dosing with 100 μg/kg peptide. Here is the method: Blood glucose levels during intraperitoneal glucose tolerance testing in rats or mice by some polypeptides of the invention were measured as follows. The in vivo activity of the polypeptides of the invention when administered subcutaneously was examined in rats or mice. Rats or mice fasted overnight were given a subcutaneous injection of control or peptide (100 μg/kg). Basal blood glucose was measured prior to administration of peptides or three or 17 hours after administration of derivatized peptides, and the rats or mice were given 2 g/kg of glucose intraperitoneally. Blood glucose was measured again after 15, 30 and 60 minutes in rats or 30 and 60 minutes in mice.

Test [3] deals with T1, GLP-1 receptor. As to the kind of experiment: Competitive binding of peptide to the GLP-1 receptor in RINm5F cell plasma membranes (125I GLP-1). The note with it: read-out: GLP1 RIN IC50. The procedure: Flasks of RINm5F cells were washed with PBS, scraped in 20 mM Hepes-1 mM EDTA-250 mM sucrose buffer containing protease inhibitors (HES) and homogenized in a dounce homogenizer followed by repeated resuspension through a 23 gauge needle. Unbroken cells and nuclei were removed by centrifugation at 500×g for 5 minutes. The pellet was resuspended in HES buffer using a 23 gauge needle and the centrifugation was repeated. The supernatants from the two spins were combined and centrifuged at 40,000×g for 20 min. The resulting plasma membrane pellet was resuspended in HES buffer using a 23 gauge needle followed by a 25 gauge needle. Membranes were stored at −80° C. until use.
Competitive binding of some polypeptides of the invention to RINm5F cell plasma membranes was measured as follows. Ninety-six-well GF/C filtration plates (Millipore, Bedford, Mass.) were blocked with 0.3% PEI for at least one hour and washed twice with binding buffer consisting of 20 mM Tris, 2 mM EDTA, pH 7.5, 1 mg/ml BSA, and 1 mg/ml bacitracin. […] The plates were dried, scintillant was added to each well, and cpm per well determined using a Wallac Microbeta counter.

The target of test [4] is T2, glucagon receptor (Rattus norvegicus, UniProt P30082).
T2 construct: glucagon receptor present in the plasma membranes isolated from rat liver; from tissue; host or cells: rat liver plasma membranes
The test is described as follows: Competitive binding of peptide to the glucagon receptor in rat liver plasma membranes (125I glucagon). The procedure:
The wet weight of the livers was determined and the tissue minced in 5 volumes of ice cold TES buffer and a slurry prepared using a polytron. All buffers and spins were kept at 4° C. The slurry was further homogenized using three strokes of a handheld dounce homogenizer. The homogenate was passed through several layers of cheesecloth and spun at 25,000×g for 10 minutes. Pellets were homogenized in 22.1 ml TES buffer using 10 strokes of a handheld dounce homogenizer. Twenty-seven point nine milliliters of 2.4 M sucrose in TE was added and mixed well. The homogenate was distributed among several tubes, and each tube was overlaid with 7 ml of TES buffer. The tubes were spun at 120,000×g for 60 minutes. The plasma membranes were removed from the interface that formed during the spin, diluted in TES and concentrated using a 15 minute spin at 200,000×g. The resulting pellet was again homogenized in 9.8 ml TES buffer, combined with 10.3 ml 2.4M sucrose, overlaid with 7 ml TES, and centrifuged at 180,000×g for 30 min. […] The final pellet was resuspended in TES. Plasma membranes were stored at −80° C. until ready for use.
Competitive binding of some polypeptides of the invention to rat liver plasma membranes was measured as follows. Ninety-six-well GF/C filtration plates (Millipore, Bedford, Mass.) were blocked with 0.1% PEI for at least one hour and washed twice with binding buffer consisting of 20 mM Tris, 2 mM EDTA, pH 7.5, 1 mg/ml BSA, and 1 mg/ml bacitracin. […] The plates were dried, scintillant was added to each well, and cpm per well determined using a Wallac Microbeta counter.

T2 sequence (P30082 27-485): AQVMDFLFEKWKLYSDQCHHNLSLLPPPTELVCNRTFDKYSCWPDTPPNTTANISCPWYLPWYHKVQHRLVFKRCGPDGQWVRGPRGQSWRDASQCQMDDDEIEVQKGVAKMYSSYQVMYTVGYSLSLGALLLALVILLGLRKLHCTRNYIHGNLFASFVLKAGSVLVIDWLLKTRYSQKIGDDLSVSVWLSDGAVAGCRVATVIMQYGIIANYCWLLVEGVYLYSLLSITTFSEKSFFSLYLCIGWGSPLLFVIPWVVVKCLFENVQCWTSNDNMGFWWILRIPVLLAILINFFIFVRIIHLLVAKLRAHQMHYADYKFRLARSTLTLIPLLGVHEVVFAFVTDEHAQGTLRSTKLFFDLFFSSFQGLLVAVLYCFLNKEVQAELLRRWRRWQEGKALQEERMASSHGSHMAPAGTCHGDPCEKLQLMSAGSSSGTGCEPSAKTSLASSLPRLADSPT

As for “HSQGTFTSDYARYLDARRAREFIKWLVRGRC(22kD) (HSQGTFTSDYARYLDARRAREFIKWLVRGRC(PEG 22kD); listed as Homo sapiens) [G2185, 22kD PEG linked to the cysteine residue]”, in test [1], the “GLP1 Relative Potency” value turned out to be 6.2% and the “% GLP1 max” value is 112.7%. Also, in test [2], the “In vivo Decrease IpGTT AUC” value is reported as 44%.
Consider HSQGTFTSDYSKYLEGQAAKEFIAWLVKGR-NH2 [G5], for which, in test [1], the “GLP1 Relative Potency” value was determined as 69.9% and the Emax was 109%. Also, in test [3], the IC50 was determined as 0.5 nM. The compound further registered an IC50 in test [4] of 243 nM.
As for HSQGTFTSDYARYLDARRAREFIKWLVRGRC [G185], in test [1], the “GLP1 Relative Potency” value is listed as 13.0% and the Emax was 104%. Moreover, the half-maximal inhibitory concentration (IC50) in test [3] stood at 4.5 nM. In test [4], this compound yielded a 50% inhibitory concentration (IC50) of 48 nM.
The matching figures for HSQGTFTSDYAKYLDARRACEFIAWLVKGRG [G71]: 4.3%, 93.3%, 5.8 nM and 25.6 nM.
Taken in the same sequence, the figures for HSQGTFTSDYARYLDAAKAKEFIAWLVKGRG [G61] were 12.1%, 96%, 10.6 nM and 232 nM.
The matching figures for HSQGTFTSDYAKYLDARRAKEFIAWLVKGRC [G77]: 9.5%, 92.1%, 8.9 nM and 61.1 nM.
On to HSQGTFTSDYAKYLDARRAKEFIAWLVKGCG [G76], for which the “GLP1 Relative Potency” value in test [1] is reported as 7.7%. In addition, the Emax in test [1] stood at 85%. Besides, the IC50 in test [3] was determined as 10.2 nM; in test [4], 59.1 nM.
Taken in the same sequence, the figures for HSQGTFTSDYARYLDARRAKEFIAWLVRGRG [G82] were 29.9%, 97.1%, 8.1 nM and 33.6 nM.
In the case of “HSQGTFTSDYAKYLDARRAKEFIAWLVKGRC(22kD) (HSQGTFTSDYAKYLDARRAKEFIAWLVKGRC(PEG 22kD); listed as Homo sapiens) [G277, 22kD PEG linked to the cysteine residue]”, in test [1], the “GLP1 Relative Potency” value is 1.8% and the “% GLP1 max” value was 93.7%. For the same compound, the “In vivo Decrease IpGTT AUC” value in test [2] stood at 46%.
Take “HSQGTFTSDYARYLDARRAKEFIAWLVKGR-NH2 [G55]”: in test [1], the “GLP1 Relative Potency” value is listed as 18.6% and the Emax came to 116%. Besides, in test [3], the IC50 is 9.8 nM. This compound gave a half-inhibitory concentration (IC50) in test [4] of 139 nM.
On to HSQGTFTSDYAKYLDARRAKEFIAWLVKCRG [G75], for which, in test [1], the “GLP1 Relative Potency” value is given as 6.6% and the Emax was 86.1%. Besides, the IC50 in test [3] turned out to be 7.7 nM. The IC50 in test [4] was 54 nM.
As to “HSQGTFTSDYAKYLDAARAKEFIAWLVKGR-NH2 [G57]”, in test [1], the “GLP1 Relative Potency” value came out at 18.3% and the Emax stood at 132%. The half-inhibitory concentration (IC50) in test [3] was 14.7 nM. This compound displayed an IC50 in test [4] of 178 nM.
Consider HSQGTFTSDYARYLDARRAREFIAWLVKGRG [G84], for which, in test [1], the “GLP1 Relative Potency” value was found to be 61.8% and the Emax was found to be 114%. In test [3], the IC50 came to 1.4 nM. In test [4], this compound yielded an IC50 of 11.7 nM.
For “HSQGTFTSDYAAYLDARRAKEFIAWLVKGR-NH2 [G56]”, the “GLP1 Relative Potency” value in test [1] was 37.2%. In addition, in test [1], the Emax is 115%. The half-inhibitory concentration (IC50) in test [3] turned out to be 6.6 nM; in test [4], 125 nM.
The matching figures for HSQGTFTSDYARYLDAKKAKEFIAWLVKGRG [G59]: 22.7%, 102%, 2.1 nM and 97.5 nM.
For the compound HSQGTFTSDYARYLDARRAREFIKWLVRGRG [G83], in test [1], the “GLP1 Relative Potency” value was determined as 29.9% and the Emax is 89.4%. For the same compound, in test [3], the IC50 was 3.2 nM. This compound also yielded an IC50 in test [4] of 28.6 nM.
The matching figures for `CC(C)C[C@H](NC(=O)[C@H](Cc1ccc(O)cc1)NC(=O)[C@H](CCCCN)NC(=O)[C@H](CO)NC(=O)[C@H](Cc1ccc(O)cc1)NC(=O)[C@H](CC(=O)O)NC(=O)[C@H](CO)NC(=O)[C@@H](NC(=O)[C@H](Cc1ccccc1)NC(=O)[C@@H](NC(=O)CNC(=O)[C@H](CCC(N)=O)NC(=O)[C@H](CO)NC(=O)[C@@H](N)Cc1c[nH]cn1)[C@@H](C)O)[C@@H](C)O)C(=O)N[C@@H](CC(=O)O)C(=O)N[C@@H](CO)C(=O)N[C@@H](CCCNC(=N)N)C(=O)N[C@@H](CCCNC(=N)N)C(=O)N[C@@H](C)C(=O)N[C@@H](CCC(N)=O)C(=O)N[C@@H](CC(=O)O)C(=O)N[C@@H](Cc1ccccc1)C(=O)N[C@H](C(=O)N[C@@H](CCC(N)=O)C(=O)N[C@@H](Cc1c[nH]c2ccccc12)C(=O)N[C@@H](CC(C)C)C(=O)N[C@H](C(=O)N[C@@H](CCCCN)C(=O)NCC(=O)N[C@@H](CCCNC(=N)N)C(N)=O)C(C)C)C(C)C` [G1]: 6.9%, 112%, 6 nM and 6.6 nM.
The matching figures for HSQGTFTSDYAKYLDAKKAKEFIAWLVKGRG [G58]: 76.1%, 99%, 6.9 nM and 163 nM.
Take HSQGTFTSDYARYLDARRAREFIAWLVRGRGK [G85]: in test [1], the “GLP1 Relative Potency” value is on record as 64.5% and the Emax came out at 95.8%. Also, the IC50 in test [3] turned out to be 1.5 nM. The compound further returned an IC50 in test [4] of 16.1 nM.
Taken in the same sequence, the figures for HSQGTFTSDYAKYLDAAKAKEFIAWLVKGRG [G60] were 22.3%, 95.7%, 13.8 nM and 682 nM.
Taken in the same sequence, the figures for HSQGTFTSDYAKYLDARRAKEFIAWLVKGRG [G51] were 58.1%, 91.2%, 8.2 nM and 154 nM.
Taken in the same sequence, the figures for HSQGTFTSDYAKYLDARRAKEFIAWLVCGRG [G74] were 8.4%, 88.7%, 4.4 nM and 21.7 nM.

What is called IC50 is the concentration at which inhibition is half-maximal.
